pIC50: −log10 of the molar value. Bridge positions count the residues as written; N and C are the ends. Peptide text beside a SMILES is read from it.
Key:
[1] = Inhibition of voltage-gated calcium channel Cav-mediated late-sustained current in Periplaneta americana (American cockroach) DUM neurons assessed as measured at holding potential -80 mV depolarized to +40 mV after 10 min by whole cell patch clamp assay in presence of CdCl2
[2] = Inhibition of voltage-gated calcium channel Cav-mediated fast-transient current in Periplaneta americana (American cockroach) DUM neurons assessed as measured at holding potential -80 mV depolarized to +40 mV after 10 min by whole cell patch clamp assay in presence of CdCl2

pIC50 [1] | pIC50 [2] | Compound
7.72 | 7.60 | CSCC[C@@H]1NC(=O)[C@H](CCCCN)NC(=O)[C@H](Cc2ccccc2)NC(=O)[C@H](CCC(N)=O)NC(=O)[C@@H](NC(=O)[C@@H](N)Cc2ccc(O)cc2)CSSC[C@@H]2NC(=O)[C@@H]3CSSC[C@@H](C(=O)N[C@@H](CCCCN)C(=O)N[C@@H](CC(C)C)C(=O)N[C@@H](CC(N)=O)C(=O)N[C@@H](CC(C)C)C(=O)O)NC(=O)[C@H](Cc4c[nH]c5ccccc45)NC(=O)[C@H](CC(C)C)NC(=O)[C@H](CCCNC(=N)N)NC(=O)[C@H](CSSC[C@H](NC(=O)[C@H]([C@@H](C)O)NC(=O)[C@H](Cc4c[nH]c5ccccc45)NC1=O)C(=O)N[C@@H](CC(=O)O)C(=O)N[C@@H](CO)C(=O)N[C@@H](CCC(=O)O)C(=O)N[C@@H](CCCNC(=N)N)C(=O)N[C@@H](CCCCN)C(=O)N3)NC(=O)[C@H](C(C)C)NC(=O)[C@H](CCSC)NC(=O)[C@H](CC(=O)O)NC(=O)[C@H](CCC(=O)O)NC2=O
8.43 | 8.43 | CSCC[C@@H]1NC(=O)[C@H](CC(=O)O)NC(=O)[C@H](CCC(=O)O)NC(=O)[C@@H]2CSSC[C@H](NC(=O)[C@@H](N)Cc3ccc(O)cc3)C(=O)N[C@@H](CCC(N)=O)C(=O)N[C@@H](CCCCN)C(=O)N[C@@H](Cc3ccccc3)C(=O)N[C@@H](CC(C)C)C(=O)N[C@@H](Cc3c[nH]c4ccccc34)C(=O)N[C@@H]([C@@H](C)O)C(=O)N[C@H]3CSSC[C@H](NC(=O)[C@H](C(C)C)NC1=O)C(=O)N[C@@H](CCC(=O)O)C(=O)N[C@@H](CC(C)C)C(=O)N[C@@H](Cc1c[nH]c4ccccc14)C(=O)N[C@H](C(=O)N[C@@H](CCCCN)C(=O)N[C@@H](CC(C)C)C(=O)N[C@@H](CCC(=O)O)C(=O)N[C@@H](CCCCN)C(=O)O)CSSC[C@H](NC(=O)[C@H](CCCCN)NC(=O)[C@H](CCCNC(=N)N)NC(=O)[C@H](CCC(=O)O)NC(=O)[C@H]([C@@H](C)O)NC(=O)[C@H](CC(=O)O)NC3=O)C(=O)N2 (H-YCQKFLWTCDTERKCCEDMVCELWCKLEK-OH; disulfide 2-16, 9-21, 15-25)
7.59 | 7.60 | CSCC[C@@H]1NC(=O)[C@H](CC(=O)O)NC(=O)[C@H](CCC(=O)O)NC(=O)[C@@H]2CSSC[C@H](NC(=O)[C@@H](N)Cc3ccc(O)cc3)C(=O)N[C@@H](CCC(N)=O)C(=O)N[C@@H](CCCCN)C(=O)N[C@@H](Cc3ccccc3)C(=O)N[C@@H](CC(C)C)C(=O)N[C@@H](Cc3c[nH]c4ccccc34)C(=O)N[C@@H]([C@@H](C)O)C(=O)N[C@H]3CSSC[C@H](NC(=O)[C@H](C(C)C)NC1=O)C(=O)N[C@@H](CCC(=O)O)C(=O)N[C@@H](CC(C)C)C(=O)N[C@@H](Cc1c[nH]c4ccccc14)C(=O)N[C@H](C(=O)N[C@@H](CCCCN)C(=O)N[C@@H](Cc1ccc(O)cc1)C(=O)N[C@@H](CCCCN)C(=O)N[C@@H](CCC(=O)O)C(=O)O)CSSC[C@H](NC(=O)[C@H](CCCCN)NC(=O)[C@H](CCCNC(=N)N)NC(=O)[C@H](CCC(=O)O)NC(=O)[C@H]([C@@H](C)O)NC(=O)[C@H](CC(=O)O)NC3=O)C(=O)N2 (H-YCQKFLWTCDTERKCCEDMVCELWCKYKE-OH; disulfide 2-16, 9-21, 15-25)

Reference: BindingDB's records for doi:10.1124/mol.110.070540 (University of Technology Sydney, 2011)
